{"source": "patent US6835382B2", "about": "“Ii peptide therapeutics to enhance antigen presentation” (University of Massachusetts, priority 1996, dated 2004)", "key": {"[1]": {"target": "T1, murine E^d MHC class II allele (Mus musculus, UniProt P01904+P01915)", "T1 sequence (P01904 26-255)": "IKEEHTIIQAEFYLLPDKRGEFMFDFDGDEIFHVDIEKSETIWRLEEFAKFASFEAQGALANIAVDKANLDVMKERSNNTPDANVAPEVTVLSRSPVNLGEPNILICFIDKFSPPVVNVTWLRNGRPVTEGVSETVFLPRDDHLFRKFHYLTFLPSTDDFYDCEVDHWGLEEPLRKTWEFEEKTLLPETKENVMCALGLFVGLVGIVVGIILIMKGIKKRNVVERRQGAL", "T1 sequence (P01915 27-264 limits assumed)": "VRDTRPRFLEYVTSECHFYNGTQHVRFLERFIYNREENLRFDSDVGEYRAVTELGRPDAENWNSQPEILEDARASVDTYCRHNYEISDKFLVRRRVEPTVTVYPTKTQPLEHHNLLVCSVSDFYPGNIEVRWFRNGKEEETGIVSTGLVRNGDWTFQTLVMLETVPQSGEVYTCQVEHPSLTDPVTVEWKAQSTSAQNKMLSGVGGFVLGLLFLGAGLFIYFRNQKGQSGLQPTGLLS", "test": "antigenic peptide prepulse assay, E^d allele (fixed APC prepulsed with HEL106-116)", "type": "cell-based", "parameters": "The A20 and CH27 B cell lymphoma lines express H-2^d and H-2^k alleles, respectively; endogenous in cells; host or cells: A20 B cell lymphoma (mitomycin C-treated or paraformaldehyde-fixed)", "details": "for Activity in antigenic peptide prepulse assay, E^d (baseline = 1.00) / Activity in antigenic peptide prepulse assay, E^d (baseline = 1.0): AE peptide 64 μM", "description": "(§1) In a second type of assay, the “peptide prepulse assay”, the antigenic peptide is incubated with paraformaldehyde-fixed APC for 6 h. The APC are washed and incubated for 24 h with the AE101 series homolog and the T cell hybridoma specific for the antigenic peptide. After that incubation, an aliquot of the culture supernatant is transferred to a second culture to measure the relative degree of T hybridoma stimulation, as reflected in the effect of released interleukins on the growth of an interleukin-dependent, indicator cell line, as described above.\n(§2) The two above described assays measure different aspects of the molecular mechanism of the AE101 series of peptides. In the “simultaneous assay”, AE101 series peptides are thought to induce the release of endogenously bound peptides and to permit the binding of the second, specific antigenic peptide which is relatively abundant in the culture fluid. The AE101 series peptides enhance antigenic peptide-specific T cell responses in simultaneous assays. In the “peptide prepulse” assay, the specific antigenic peptide becomes bound to MHC class II molecules on the surface of the fixed APC during the 6 h prepulse incubation. The effect of the AE101 series homologs is then thought to release that antigenic peptide, resulting in an apparent suppression of the immune response.\n(§3) The AE101 series peptides are thought to contact the MHC class II molecules at a discrete site outside the antigenic peptide-binding groove. AE101 peptide binding to this “Ii-KEY” site is thought to induce a conformational change in the MHC class II molecules accelerating the dissociation of previously bound antigenic peptide. […] The AE101 series peptides thus inhibit antigenic peptide-specific T cell responses in the “peptide prepulse” assays.\n(§4) Antigenic peptide-specific T cell activation was measured by the following procedure. Mitomycin C-treated A20 cells (A^dE^d) or CH27 cells APC (A^kE^k) were generated by incubating 5×10^6 cells/mL for 20 min at 37° C. with 0.025 mg/mL of mitomycin C (Sigma) in Dulbecco's Modified Eaglel's Medium (DMEM)/10 mM N-2(hydroxyethylpiperazine-N″[2-ethanesulfonic acid] (HEPES), followed by two washes with four volumes of DMEM-5% fetal calf serum (FCS), 10 mM HEPES. Fixed APC were generated by treating 1×10^6 cells/mL for 5 min with 0.5% paraformaldehyde in PBS (pH 7.2), followed by two washes with four volumes of DMEM-10% FCS, 10 mM HEPES. T cell hybridomas were irradiated 2200 rads before each assay.\n(§5) The “peptide prepulse assay” was carried out under essentially the same conditions as described for the “simultaneous assay” with the following modifications. Fixed APC were first incubated for 6 h at 1×10^6 cells/mL in complete DMEM-5% FCS in 24-well microculture plates (1 mL/well) with antigenic peptide, followed by four washes with 10 volumes of DMEM-5% FCS. The cells were then exposed to varying concentrations of AE101 series peptide (64 μM, 16 μM, 4 μM, and 1 μM) for 24 h in the presence of the T cell hybridoma specific to the antigenic peptide. Interleukin release from these cultures was measured by proliferation of HT-2 cells to interleukins in supernatants transferred from the primary culture. Generally, a single dose of 64 μM of each AE101 series peptide was used. The baseline T cell response was measured by culturing T hybridoma cells with the antigenic peptide-prepulsed APC in the absence of AE101 series peptides.\n[…] […] Paraformaldehyde-treated APC (fixed APC) expressing MHC class II molecules were incubated with antigenic peptide for 6 h (HEL106-116 for E^d and PGCC81-104 for E^k). After this incubation, the prepulsed APC were washed and cultured with T hybridoma cells and AE101 series peptides. […] The AE101 series peptide concentrations were 64 μM for E^d and 16 μM for E^k. The dilutions of supernatant taken into the HT-2 cell assay were 1:4 for Ed and 1:2 for E^k."}, "[2]": {"tested_on": "murine E^k MHC class II allele", "test": "antigenic peptide prepulse assay, E^k allele (fixed APC prepulsed with PGCC81-104)", "type": "cell-based", "details": "for Activity in antigenic peptide prepulse assay, E^k (baseline = 1.0): prepulse 1.25 μM antigenic peptide", "description": "as §1, §2, §3, §4, §5\nTable 19: Activities of C-terminal truncation analogs of AE101 in an antigenic peptide prepulse assay. […] Paraformaldehyde-treated APC (fixed APC) expressing MHC class II molecules were incubated with antigenic peptide for 6 h (HEL106-116 for E^d and PGCC81-104 for E^k). After this incubation, the prepulsed APC were washed and cultured with T hybridoma cells and AE101 series peptides. The antigenic peptide concentration during the prepulse was 12 μM for Ed and 20 μM for E^k. The AE101 series peptide concentrations were 64 μM for E^d and 16 μM for E^k. […]"}, "[3]": {"details": "Table 24, prepulse 24 μM antigenic peptide, supernatant 1:4"}, "[4]": {"details": "Table 25, prepulse 24 μM antigenic peptide, supernatant 1:4"}, "[5]": {"details": "Table 26, prepulse 24 μM antigenic peptide, supernatant 1:2"}, "[6]": {"details": "Table 24, AE peptide 64 μM, prepulse 0.625 μM antigenic peptide, supernatant 1:8"}, "[7]": {"details": "Table 25, AE peptide 64 μM, prepulse 2.5 μM antigenic peptide, supernatant 1:10"}, "[8]": {"details": "Table 26, AE peptide 64 μM, supernatant 1:8"}, "[9]": {"details": "Table 22, prepulse 6 μM antigenic peptide, supernatant 1:8"}, "[10]": {"details": "Table 22, AE peptide 16 μM, prepulse 20 μM antigenic peptide, supernatant 1:2"}, "[11]": {"details": "Table 20, prepulse 3 μM antigenic peptide, supernatant 1:2"}, "[12]": {"details": "Table 20, AE peptide 16 μM, prepulse 20 μM antigenic peptide, supernatant 1:2"}}, "note": "Non-standard residues stand in square brackets, D forms with d. hArg = N=C(N)NCCCC[C@H](N)C(=O)O; Orn = NCCC[C@H](N)C(=O)O", "data": [{"substance": "Ac-LR L KLPK-NH2 (Ac-LRLKLPK-NH2; not fully specified; printed as Ac-LR L KLPK-NH2) [AE206]", "values": [{"measurement": "Activity in antigenic peptide prepulse assay, E^d (baseline = 1.00)", "setting": "[1]; [3]", "result": 0.52}, {"measurement": "Activity in antigenic peptide prepulse assay, E^d (baseline = 1.00)", "setting": "[1]; [4]", "result": 0.18}, {"measurement": "Activity in antigenic peptide prepulse assay, E^d (baseline = 1.0)", "setting": "[1]; [5]", "result": 0.38}, {"measurement": "Activity in antigenic peptide prepulse assay, E^k (baseline = 1.00)", "setting": "[2]; [6]", "result": 1.00}, {"measurement": "Activity in antigenic peptide prepulse assay, E^k (baseline = 1.00)", "setting": "[2]; [7]", "result": 0.68}, {"measurement": "Activity in antigenic peptide prepulse assay, E^k (baseline = 1.0)", "setting": "[2]; [8]", "result": 0.96}]}, {"substance": "Ac-ARNKLPK-NH2 [AE344]", "values": [{"measurement": "Activity in antigenic peptide prepulse assay, E^d (baseline = 1.00)", "setting": "[1]; [4]", "result": 0.46}, {"measurement": "Activity in antigenic peptide prepulse assay, E^k (baseline = 1.00)", "setting": "[2]; [7]", "result": 0.76}]}, {"substance": "Ac-LR (mL) KLPK-NH2 [AE302]", "values": [{"measurement": "Activity in antigenic peptide prepulse assay, E^d (baseline = 1.00)", "setting": "[1]; [3]", "result": 0.82}, {"measurement": "Activity in antigenic peptide prepulse assay, E^k (baseline = 1.00)", "setting": "[2]; [6]", "result": 0.85}]}, {"substance": "Ac-LR[Orn]KLPK-NH2 [AE195]", "values": [{"measurement": "Activity in antigenic peptide prepulse assay, E^d (baseline = 1.00)", "setting": "[1]; [4]", "result": 0.41}, {"measurement": "Activity in antigenic peptide prepulse assay, E^k (baseline = 1.00)", "setting": "[2]; [7]", "result": 0.74}]}, {"substance": "Ac-LRM k LPK-NH2 [AE163]", "values": [{"measurement": "Activity in antigenic peptide prepulse assay, E^d (baseline = 1.00)", "setting": "[1]; [9]", "result": 0.39}, {"measurement": "Activity in antigenic peptide prepulse assay, E^k (baseline = 1.00)", "setting": "[2]; [10]", "result": 0.99}]}, {"substance": "Ac-Y F MKLPKSAK-NH2 [AE139]", "values": [{"measurement": "Activity in antigenic peptide prepulse assay, E^d (baseline = 1.00)", "setting": "[1]; [11]", "result": 0.67}, {"measurement": "Activity in antigenic peptide prepulse assay, E^k (baseline = 1.00)", "setting": "[2]; [12]", "result": 0.38}]}, {"substance": "Ac-LRMKLPK-NH2 [AE114]", "values": [{"measurement": "Activity in antigenic peptide prepulse assay, E^d (baseline = 1.00)", "setting": "[1]; [9]", "result": 0.02}, {"measurement": "Activity in antigenic peptide prepulse assay, E^d (baseline = 1)", "setting": "[1]; Table 23, as printed: antigenic peptide prepulse 64 μM, AE peptide 1:4 μM, supernatant 1:8", "result": 0.41}, {"measurement": "Activity in antigenic peptide prepulse assay, E^d (baseline = 1.00)", "setting": "[1]; [3]", "result": 0.41}, {"measurement": "Activity in antigenic peptide prepulse assay, E^d (baseline = 1.00)", "setting": "[1]; [4]", "result": 0.31}, {"measurement": "Activity in antigenic peptide prepulse assay, E^d (baseline = 1.0)", "setting": "[1]; [5]", "result": 0.28}, {"measurement": "T cell response relative to baseline without AE peptide (None = 1.0), E^d", "setting": "[1]; Table 27, antigenic peptide prepulse 24 μM, AE101 series peptide 64 μM, HT-2 supernatant dilution 1:8", "result": 0.32}, {"measurement": "Activity in antigenic peptide prepulse assay, E^d (baseline = 1.0)", "setting": "[1]; Table 28, prepulse 24 μM antigenic peptide, supernatant 1:4", "result": 0.41}, {"measurement": "Activity in antigenic peptide prepulse assay, E^k (baseline = 1.00)", "setting": "[2]; [10]", "result": 0.15}, {"measurement": "Activity in antigenic peptide prepulse assay, E^k (baseline = 1)", "setting": "[2]; Table 23, as printed: antigenic peptide prepulse 64 μM, AE peptide 1:8 μM, supernatant 1:2", "result": 0.78}, {"measurement": "Activity in antigenic peptide prepulse assay, E^k (baseline = 1.00)", "setting": "[2]; [6]", "result": 0.78}, {"measurement": "Activity in antigenic peptide prepulse assay, E^k (baseline = 1.00)", "setting": "[2]; [7]", "result": 0.79}, {"measurement": "Activity in antigenic peptide prepulse assay, E^k (baseline = 1.0)", "setting": "[2]; [8]", "result": 0.98}, {"measurement": "T cell response relative to baseline without AE peptide (None = 1.0), E^k", "setting": "[2]; Table 27, antigenic peptide prepulse 1.25 μM, AE101 series peptide 64 μM, HT-2 supernatant dilution 1:8", "result": 0.69}, {"measurement": "Activity in antigenic peptide prepulse assay, E^k (baseline = 1.0)", "setting": "[2]; Table 28, AE peptide 64 μM, supernatant 1:4", "result": 0.78}]}, {"substance": "YRMKLPKSAKPVSQMR [AE101]", "values": [{"measurement": "Activity in antigenic peptide prepulse assay, E^d (baseline = 1.00)", "setting": "[1]; [11]", "result": 0.25}, {"measurement": "Activity in antigenic peptide prepulse assay, E^k (baseline = 1.00)", "setting": "[2]; [12]", "result": 0.89}]}, {"substance": "Ac-LRMK HArg PK-NH2 (Ac-LRMK[hArg]PK-NH2; SMILES CSCC[C@H](NC(=O)[C@H](CCCNC(=N)N)NC(=O)[C@H](CC(C)C)NC(C)=O)C(=O)N[C@@H](CCCCN)C(=O)N[C@@H](CCCCNC(=N)N)C(=O)N1CCC[C@H]1C(=O)N[C@@H](CCCCN)C(N)=O) [AE227]", "values": [{"measurement": "Activity in antigenic peptide prepulse assay, E^d (baseline = 1.00)", "setting": "[1]; [4]", "result": 0.28}, {"measurement": "Activity in antigenic peptide prepulse assay, E^k (baseline = 1.00)", "setting": "[2]; [7]", "result": 0.87}]}]}
